These results are taken from patent EP2490029A1, “Vancomycin analysis” (Université Catholique de Louvain, priority 2011, dated 2012).

Molecules are shown by their SMILES.

Experiment [1] concerns N-α-acetyl-Lys-D-ala-D-ala. Briefly: Quartz crystal microbalance (QCM) detection of vancomycin on grafted peptide receptor. Format: binding. The settings on record: water/glucose solution compared with water; 1 µM and 40 µM; flow rate 40 µL/min. Here is the method:
Quartz crystal microbalance experiments were performed using SRS Stanford Research Systems (QCM 200 5MHz). The surfaces of gold-plated quartz crystal on chips were prepared as follows: gold-plated quartz crystals were initially immersed in a piranha solution (70/30) for 3 minutes to regenerate the surfaces. The resulting crystals were repeatedly and intensively rinsed with water. The crystals were subsequently grafted with mPEG thiols (O-(2-Mercaptoethyl)-O'-methyl-hexa(ethylene glycol) (polypure) 10^-3 M in ethanol. The grafted crystals were subsequently rinsed with ethanol in an ultrasonic bath, and dried with N2. The grafted crystals were subsequently grafted with NHS ester succinimidyl, 2 mM in acetonitrile sprayed on the surfaces and the surfaces were placed in front of a UV lamp during 2 hours. The functionalized surfaces of the crystals were subsequently rinsed with acetonitrile in an ultrasonic bath; dried with N2, and then subsequently grafted with N-α-acetyl-Lys-D-ala-D-ala in pure water and in water with 5% of glucose (vol.).
All QCM experiments used a flow rate of 40 µL/min. The quality of all the grafting has been tested at each step, by contact angle measurements and IR spectra. All of them were satisfactory. Figures 6, 7 and 8 represent QCM data plot showing delta frequency (MHz) change over time of vancomycin detection. […]

In another experiment the test system is Nα(Ac)-L-Lys-D-Ala-D-Ala. Briefly: FTIR-ATR biosensor binding of vancomycin to immobilized peptide receptor. The settings on record: for vancomycin binding: 50 µg/mL; for Kd: single site binding isotherm, R^2 = 0.99, ± standard error. Here is the method:
On the thus functionalized ATR element a peptide was bound. Peptide binding onto the device was obtained in one channel of measurement at a time by incubation for 3 hours of N-α-acetyl-Lys-D-Ala-D-Ala peptide, or another peptide as provided in Figure 2, at a concentration of 2 mg/mL in phosphate buffered saline (PBS) at room temperature. The measurement channel was then rinsed with milliQ water for 30 min.
The binding of the peptide was monitored by FTIR-ATR spectroscopy by using the BIA-ATR device. Attenuated Total Reflection Fourier Transformed Infrared (ATR-FTIR) Spectra were obtained on a Brüker IFS55 FTIR spectrophotometer (Ettlingen, Germany) equipped with a MCT detector (broad band 12000-420 cm^-1, liquid N2 cooled, 24h hold time) at a resolution of 8 cm^-1 with an aperture of 3.5 mm and acquired in the double-sided, forward-backward mode. Two levels of zero filling of the interferogram prior to Fourier transform allowed encoding the data every 1 cm^-1. The spectrometer was continuously purged with dry air (Whatman 75-62, Haverhill, MA, USA). Triangular-shaped germanium crystals (4.8 x 4.8 x 45 mm^3) were purchased from Biosentech (Belgium) and accommodated on the beam condenser from a Golden Gate Micro-ATR from Specac. A top plate with a groove fitting the crystal was used in replacement of the diamond-bearing plate (WOW Company, Belgium). With this geometry, a single reflection was obtained and more than 10 lanes can be used on a crystal.
Using a biosensor constructed in Example 1, a solution of vancomycin in pure water (obtained from the laboratory MilliQ system) at a concentration of at 50 µg/mL is passed over one channel of the crystal at a flow-rate of 20 µl/min. FTIR-ATR spectra were recorded continuously and the vancomycin binding is monitored by following the appearance of its characteristic signal at 1230 cm^-1. This monitoring of this signal is advantageous as it is isolated in the spectra, i.e. not superimposed to other signals due to ligand and/or receptor. The intensity of the peak at 1230 cm^-1 thus allowed the quantitative measurement of vancomycin binding.
The N-α(Ac)-L-Lys-D-Ala-D-Ala biosensor as described in Example 1 was used. A solution of vancomycin in phosphate buffered saline (50 µg/mL) was used in the binding assay. The quantitative analysis was performed by measuring the surface on the IR spectra comprised between 1253 and 1218 cm^-1. The spectra were recorded every 30 sec during 5 min. […] The results are depicted in Figure 1.
The unexpected effect on the binding affinity of vancomycin versus X-D-Ala-D-Ala receptor immobilized on the ATR optical element, has been further observed by using the following detection media: 3 mM aqueous solution of Na2HPO4, 10 mM aqueous solution of Na2HPO4, 154 mM aqueous solution of NaCl, and a PBS solution made from 3 mM Na2HPO4 and 50 mM NaCl.
The Nα(Ac)-L-Lys-D-Ala-D-Ala biosensor described in Example 1 was used. The assays were performed three times successively using the same channel, and this has been repeated at three different days (n = 9) using another channel for each day. Solutions of vancomycin in 5% glucose at various concentrations (from 0 to 25 µg/mL) were passed over the crystal at a flow rate of 20 µL/min. The vancomycin binding was analyzed by the integration of the peak at 1230 cm^-1 (10 spectra recorded every 30 sec), and normalized by referring to the 25 µg/mL concentration.
The spiked dialyzed serum samples were flown over a measurement channel on which the Nα(Ac)-L-Lys-D-Ala-D-Ala had been attached as described before in Example 1. The absorption band between 1259 and 1213 cm^-1 was quantified for each vancomycin concentration. The area of the band was reported as a function of vancomycin concentration. […] From the data reported in Figure 4 it follows that vancomycin binding can be monitored with precision in a concentration range which is relevant for medical application.

In general, Kd refers to the concentration at which binding is half-saturated. A lower Kd goes with higher affinity. As for `CN[C@H](CC(C)C)C(=O)N[C@H]1C(=O)N[C@@H](CC(N)=O)C(=O)N[C@H]2C(=O)N[C@H]3C(=O)N[C@H](C(=O)N[C@H](C(=O)O)c4cc(O)cc(O)c4-c4cc3ccc4O)[C@H](O)c3ccc(c(Cl)c3)Oc3cc2cc(c3O[C@@H]2O[C@H](CO)[C@@H](O)[C@H](O)[C@H]2O[C@H]2C[C@](C)(N)[C@H](O)[C@H](C)O2)Oc2ccc(cc2Cl)[C@H]1O` [vancomycin], in experiment [1], the delta frequency shift result is recorded as “greater delta frequency was always observed in the presence of glucose”. In addition, in the experiment on Nα(Ac)-L-Lys-D-Ala-D-Ala (50 µg/mL in phosphate buffered saline, compared to pure water, IR area 1253-1218 cm^-1), the “amount of vancomycin detected” value is “very weak”. Further, the vancomycin binding entry with Nα(Ac)-L-Lys-D-Ala-D-Ala (effect of phosphate (3 mM or 10 mM Na2HPO4, PBS) in detection medium) is “totally prevents”; in the experiment with Nα(Ac)-L-Lys-D-Ala-D-Ala (effect of sodium chloride at physiological concentration (154 mM NaCl)) it was “partially inhibited”. The Kd turned out to be 13.7 ± 1.8 µM on Nα(Ac)-L-Lys-D-Ala-D-Ala (in 5% glucose, band area 1259-1213 cm^-1) and 7.3 ± 0.8 µM at Nα(Ac)-L-Lys-D-Ala-D-Ala (in human serum dialyzed against 5% glucose). Also, the “vancomycin binding onto the receptor” value with Nα(Ac)-L-Lys-D-Ala-D-Ala (in pure water) is recorded as “maximal”.
